Like-named read-outs stand apart in the source and are kept apart here.
How the values were obtained:
NCI460 = experiment: Cytotoxicity, NCI460 lung line; format: cell-based; conditions: Homo sapiens, NCI-460, read-out: CI50 (the source's name)
NCIADR = experiment: Cytotoxicity, NCIADR multiple drug resistant ovary line; format: cell-based; conditions: Homo sapiens, NCI/ADR-RES, read-out: CI50 (the source's name)
UACC62 = experiment: Cytotoxicity, UACC62 melanoma line; format: cell-based; conditions: Homo sapiens, UACC-62, read-out: CI50 (the source's name)
MCF7 = experiment: Cytotoxicity, MCF7 breast line; format: cell-based; conditions: Homo sapiens; MCF7 (breast cancer); read-out: CI50 (the source's name)
BxPC3 = experiment: In vitro cytotoxicity, BxPC3 pancreas line; format: cell-based; conditions: Homo sapiens, BXPC-3; BxPC3, Table 3; read-out: CI50% (the source's name)
PANC1 = experiment: In vitro cytotoxicity, PANC1 pancreas line; format: cell-based; conditions: Homo sapiens, PANC-1; PANC1, Table 3; read-out: CI50% (the source's name)
DLD1 = experiment: Antitumor activity, DLD1 line; format: cell-based; conditions: Homo sapiens, DLD-1; DLD1, Table 3; read-out: CI50% (the source's name)
MIAP2 = experiment: In vitro cytotoxicity, MIAP2 pancreas line; format: cell-based; conditions: Homo sapiens; MIAP2, Table 3; read-out: CI50% (the source's name)
[1] = test system: lines of human carcinoma tested; experiment: In vitro cytotoxicity against the panel of human carcinoma lines; conditions: compared with compound 6
SW620 = experiment: In vitro cytotoxicity, SW620 colon line; format: cell-based; conditions: Homo sapiens, SW-620; SW620, Table 3; read-out: CI50% (the source's name)
CaCo2 = experiment: In vitro cytotoxicity, CaCo2 colon line; format: cell-based; conditions: Homo sapiens, Caco-2; Caco2, Table 3; read-out: CI50% (the source's name)
Colo205 = experiment: In vitro cytotoxicity, Colo205 colon line; format: cell-based; conditions: Homo sapiens, COLO 205; Colo205, Table 3; read-out: CI50% (the source's name)
HT-29 = experiment: In vitro cytotoxicity, HT-29 colon line; format: cell-based; conditions: Homo sapiens, HT-29; HT29, Table 3; read-out: CI50% (the source's name)
CRO2B = experiment: In vitro cytotoxicity, CRO2B carcinoid line; format: cell-based; conditions: Homo sapiens, Table 3, read-out: CI50% (the source's name)
[2] = test system: FN-1 (Normal human fibroblast); experiment: Cytotoxicity, normal human fibroblasts; format: cell-based; conditions: FN-1
Procedure: Fragments of cutaneous biopsies from patients treated by the Dermatology Service of the Clinic Hospital of the Medicine School of USP were removed for routine diagnostic procedures and part of the surgical flap edge immersed in Eagle culture medium modified by Dulbecco's (DMEM, Sigma Chemical Co., St. Louis, Mo., USA) added of 10% fetal bovine serum (Cultilab Ltda., Campinas-SP), […] and 50 ng/ml amphotericin B at 4 C and kept at 4 C for a maximum of 16 hours.
The fragments were washed three times in the same solution, cut into fragments of approximately 1 mm^3 and transferred to 25 cm^2 culture flasks, kept at 37 C, humid atmosphere containing 5% CO2. Cell growth monitored daily, photo documented in inversion microscopy and culture medium exchanged every 2 or 3 days, according to cell metabolism.
After 7 days, the first change in the culture medium of the flasks was performed once cell growth started, the culture medium was renewed every three days. Plastic flasks were used for cultivation of 25 cm^2 of cultivated area, where more 3 ml of DME medium containing 10% fetal bovine serum and 1% of antibiotic-antimycotic solution will be added.
The cell viability test was performed to verify the effect of the various compounds on the various concentrations previously established: on the lines of tumor cells B16F10 and normal human fibroblasts. The MTT method consists of a cell viability test that measures the activity of mitochondrial dehydrogenase. MTT is a colorimetric method based on the capacity of living cells to reduce salt 3-(4,5-di-methylazole-2-IL)-2,5-diphenyl tetrazolium bromide in the formazan product (Mosmann, 1983). […]
The 96-well plate was read by the spectrophotometer (Spectra MAX-190) using the wavelength of 570 nm. The results were analyzed by absorbance of each well. The percentage of viability was obtained using the following formula: [(Absorbance of treated cells/Absorbance of untreated cells)×100]. […]

[3] = test system: 4T1 (murine mammary carcinoma); experiment: Cytotoxicity, 4T1 cells; format: cell-based; conditions: Mus musculus, read-out: CI50% tumor cells
[4] = test system: SCC25 (squamous-cell carcinoma of the oral cavity); experiment: Cytotoxicity, SCC25 cells; format: cell-based; conditions: Homo sapiens, SCC-25, read-out: CI50% tumor cells
[5] = test system: MCF-7 (human mammary adenocarcinoma); experiment: Cytotoxicity, MCF-7 cells; format: cell-based; conditions: MCF7, read-out: CI50% tumor cells
[6] = test system: HUVEC (Normal human endothelial cell); experiment: Cytotoxicity, HUVEC normal cells
[7] = test system: SCC9 (squamous-cell carcinoma of the oral cavity); experiment: Cytotoxicity, SCC9 cells; format: cell-based; conditions: Homo sapiens, SCC-9, read-out: CI50% tumor cells
[8] = test system: HUVEC (Normal human endothelial cell)

CC(=O)c1ccccc1OCC=C(C)C [Compound 9, 2-(3-methylbut-2-enyl-oxyi)acetophenone]
IC50 (NCI460): 122 µM | IC50 (NCIADR): 39.2 µM | IC50 (UACC62): 220 µM | IC50 (MCF7): 122 µM

O=CC=C(Cl)c1ccccc1OC(=O)c1ccccc1 [Compound 5, 3-Chloro-3-(2-benzoyloxy-phenyl)propenal]
IC50 (BxPC3): 160 µM | IC50 (PANC1): 177 µM | IC50 (DLD1): 127 µM | IC50 (MIAP2): 156 µM | cytotoxic activity relative to compound 6 [1]: seven times lower | IC50 (SW620): 134 µM | IC50 (CaCo2): 163 µM | IC50 (Colo205): 149 µM | IC50 (HT-29): 92 µM | IC50 (CRO2B): 149 µM

COc1ccc(/C=C/C(Cl)=C/C=O)cc1OC [Compound 23, (4E)-3-chloro-5-(3,4-dimethoxyphenyl)penta-2,4-dienal]
CI50% Normal cells [2]: 53.33 µM | IC50 [3]: 22.1 µM | IC50 [4]: 3.32 µM | IC50 [5]: 54.6 µM | CI50% Normal cells [6]: 30.1 µM | IC50 [7]: 15 µM

5-(chloro-2-(3,4-dimethoxybenzyl)-5-(4-ethynyl-2,3,4,6-benzil-β-D-galactopyranoside)-penta-2,4-dienonitrile [Compound 21A]
CI50% Normal cells [8]: 23.09 µM

Reference: patent US20230130823A1, “PROCESS FOR THE PRODUCTION OF ANTITUMOUR PHARMACEUTICAL COMPOSITIONS USING PUSH-PULL BUTADIENES, COMPOUNDS AND USES THEREOF” (ANHANGUERA EDUCACIONAL PARTICIPAÇÕES S/A, priority 2019, published 2023)
